Data on 2 molecules can be found in patent US12384798B2, “ACC inhibitor and use thereof” (NANJING RUIJIE PHARMA CO., LTD., priority 2019, dated 2025).

Read-outs that look alike come from different tables or passages of the source.

Series [1] addresses ACC2 (Homo sapiens (Human), UniProt O00763). Briefly: In vitro ACC inhibition assay (ADP-Glo), ACC2. It is filed as biochemical. As to conditions: for IC50: 0.5 nM ACC, 10 μM ATP, 5 μM acetyl-CoA, read-out: Enzymatic activity IC50 ACC2. Here is the method:
An exemplary procedure for the in vitro ACC inhibition assay, which can be used to determine the inhibitory action of the compounds of the invention toward either ACC1 or ACC2, is as follows. The ADP-Glo™ kinase assay kit from Promega was used. The ADP-Glo™ kinase assay is a luminescent ADP detection assay to measure enzymatic activity by quantifying the amount of ADP produced during an enzyme reaction. The assay was performed in two steps; first, after the enzyme reaction, an equal volume of ADP-Glo™ reagent was added to terminate the reaction and deplete the remaining ATP. Then, the kinase detection reagent was added to simultaneously convert ADP to ATP and allow the newly synthesized ATP to be measured using a luciferase/luciferin reaction. Luminescence can be correlated to ADP concentrations by using an ATP-to-ADP conversion curve. The detailed procedure was as follows. 4.5 μL of a working solution was added to a 384-well plate. The compound was diluted at 1:3 in succession in DMSO. 0.5 μL of diluted compound solution was added to a 384-well white Optiplate assay plate. The plates were incubated at room temperature for 15 minutes. 5 μL of substrate working solution was added to each well to initiate the reaction. A final ACC reaction solution consisted of: 0.5 nM ACC, 10 μM ATP, 5 μM acetyl-CoA, and 15 mM NaHCO3; and the final concentrations of the compound were measured as follows: 1 μM, 0.333 μM, 0.111 μM, 0.037 μM, 0.0123 μM, 0.00411 μM, 0.00137 μM, 0.000457 μM, 0.000152 μM, and 0.000051 μM. The plates were incubated at room temperature for 30 minutes. 10 μL of ADP-Glo™ reagent was added, and the plates were incubated at room temperature for 40 minutes. 20 μL of kinase detection reagent was added. The plates were incubated at room temperature for 40 minutes, then read on a Perkin Elmer EnVision 2104 plate reader for luminescence in relative light unit (RLU).
Data for each concentration, as well as the positive and negative controls were averaged, and the standard deviation was calculated. Percent inhibition was calculated by the formula: 100×(average negative control−compound)/(average negative control−average positive control). The IC50 for each compound was calculated by fitting the data with a non-linear regression equation: Y=Bottom+(Top−Bottom)/(1+10^((Log IC50−X)×HillSlope)), where X is the log of compound concentration and Y is the percent inhibition.
Background: In ADP-Glo the light output rises with the ADP produced.

A short description of series [2]: Pharmacokinetic evaluation of compounds in rats. It is filed as in vivo. As to conditions: SD rats; for Kp / Vd / AUC(0-inf) / Cmax / Tmax / half-life / bioavailability: male, rat; for Kp: liver/plasma, liver collected 1 h, 3 h and 24 h after dosage, read-out: L/P liver-to-blood ratio; for Vd / AUC(0-inf) / Cmax / Tmax / half-life / bioavailability: plasma; for Vd: intravenous, 2 mg/kg, read-out: Vss; for bioavailability: read-out: F (%) bioavailability. The text has this: This example was intended to investigate the pharmacokinetics of the compounds of the present invention and ND630 in SD rats under the conditions of intravenous (iv) and intragastric administration (po). Unless otherwise stated, the experimental reagents and instruments are all commercially available. ND630 was Gilead's acetyl CoA carboxylase (ACC) inhibitor, with a structural formula as follows: […]
Formulation of compound: by taking a physiological saline solution of 5% DMSO+5% Solutol HS 15+90% HP-β-CD (20% w/v) as a solvent, a compound with the final concentration of 0.4 mg/mL was formulated for intravenous administration and a compound with the final concentration of 1 mg/mL was formulated for orally intragastric administration.
Animal feeding and management: male SD rats aged 6-8 weeks and weighing between 180-250 g were selected and raised in transparent resin plastic rate cages. Before administration, the rats were fasted overnight for at least 16 hours, and the feed supply was restored 4 hours after administration.
For the intravenous injection administration group, the dose was 2 mg/kg, and 0.2 mL of blood samples was collected from the jugular vein 5 min, 15 min, 30 min, 1 h, 3 h, 5 h, and 8 h after dosage. For the orally intragastric administration group, the dose was 10 mg/kg, and 0.2 mL of blood samples was collected from the jugular vein 15 min, 30 min, 1 h, 3 h, 5 h, 8 h, 12 h, and 24 h after dosage; and liver tissues were collected 1 h, 3 hand 24 h after dosage.
After the blood were sampled, the plasma was quickly separated by centrifugation at 4000 rpm (10 minutes, 4° C.). After the liver tissues were sampled, a mixture of methanol:water (1:1, v/v) three times the volume of the liver tissues was added to prepare a homogenate. 50 μL of plasma or homogenate sample was drawn, and 200 μL of an internal standard (30 ng/mL terfenadine, and acetonitrile) was added for precipitation. Centrifuging was carried out at 4° C. and 15,400 g for 10 minutes, and a supernatant was taken for analysis.
The concentration of a target compound was detected by LC-MS/MS. According to the plasma concentration-time curve, pharmacokinetic parameters were calculated by using a non-compartmental model (NCA) of software WinNonlin 7.0. […] Table 4. Pharmacokinetic results

Setting [3] is: iv 2 mg/kg, read-out: AUC0-∞ (iv).
Where [4] appears, read: iv 2 mg/kg, read-out: Cmax (iv).
Where [5] appears, read: iv 2 mg/kg, read-out: Tmax (iv).
Setting [6] is: iv 2 mg/kg, read-out: t1/2 (iv) (converted).
Setting [7] is: po 10 mg/kg, read-out: AUC0-∞ (po).
[8] abbreviates: po 10 mg/kg, read-out: Cmax (po).
Setting [9] is: po 10 mg/kg, read-out: Tmax (po).
The mark [10] stands for this setting: po 10 mg/kg, read-out: t1/2 (po) (converted).

Chain of ACC2 (O00763 whole entry, species assumed): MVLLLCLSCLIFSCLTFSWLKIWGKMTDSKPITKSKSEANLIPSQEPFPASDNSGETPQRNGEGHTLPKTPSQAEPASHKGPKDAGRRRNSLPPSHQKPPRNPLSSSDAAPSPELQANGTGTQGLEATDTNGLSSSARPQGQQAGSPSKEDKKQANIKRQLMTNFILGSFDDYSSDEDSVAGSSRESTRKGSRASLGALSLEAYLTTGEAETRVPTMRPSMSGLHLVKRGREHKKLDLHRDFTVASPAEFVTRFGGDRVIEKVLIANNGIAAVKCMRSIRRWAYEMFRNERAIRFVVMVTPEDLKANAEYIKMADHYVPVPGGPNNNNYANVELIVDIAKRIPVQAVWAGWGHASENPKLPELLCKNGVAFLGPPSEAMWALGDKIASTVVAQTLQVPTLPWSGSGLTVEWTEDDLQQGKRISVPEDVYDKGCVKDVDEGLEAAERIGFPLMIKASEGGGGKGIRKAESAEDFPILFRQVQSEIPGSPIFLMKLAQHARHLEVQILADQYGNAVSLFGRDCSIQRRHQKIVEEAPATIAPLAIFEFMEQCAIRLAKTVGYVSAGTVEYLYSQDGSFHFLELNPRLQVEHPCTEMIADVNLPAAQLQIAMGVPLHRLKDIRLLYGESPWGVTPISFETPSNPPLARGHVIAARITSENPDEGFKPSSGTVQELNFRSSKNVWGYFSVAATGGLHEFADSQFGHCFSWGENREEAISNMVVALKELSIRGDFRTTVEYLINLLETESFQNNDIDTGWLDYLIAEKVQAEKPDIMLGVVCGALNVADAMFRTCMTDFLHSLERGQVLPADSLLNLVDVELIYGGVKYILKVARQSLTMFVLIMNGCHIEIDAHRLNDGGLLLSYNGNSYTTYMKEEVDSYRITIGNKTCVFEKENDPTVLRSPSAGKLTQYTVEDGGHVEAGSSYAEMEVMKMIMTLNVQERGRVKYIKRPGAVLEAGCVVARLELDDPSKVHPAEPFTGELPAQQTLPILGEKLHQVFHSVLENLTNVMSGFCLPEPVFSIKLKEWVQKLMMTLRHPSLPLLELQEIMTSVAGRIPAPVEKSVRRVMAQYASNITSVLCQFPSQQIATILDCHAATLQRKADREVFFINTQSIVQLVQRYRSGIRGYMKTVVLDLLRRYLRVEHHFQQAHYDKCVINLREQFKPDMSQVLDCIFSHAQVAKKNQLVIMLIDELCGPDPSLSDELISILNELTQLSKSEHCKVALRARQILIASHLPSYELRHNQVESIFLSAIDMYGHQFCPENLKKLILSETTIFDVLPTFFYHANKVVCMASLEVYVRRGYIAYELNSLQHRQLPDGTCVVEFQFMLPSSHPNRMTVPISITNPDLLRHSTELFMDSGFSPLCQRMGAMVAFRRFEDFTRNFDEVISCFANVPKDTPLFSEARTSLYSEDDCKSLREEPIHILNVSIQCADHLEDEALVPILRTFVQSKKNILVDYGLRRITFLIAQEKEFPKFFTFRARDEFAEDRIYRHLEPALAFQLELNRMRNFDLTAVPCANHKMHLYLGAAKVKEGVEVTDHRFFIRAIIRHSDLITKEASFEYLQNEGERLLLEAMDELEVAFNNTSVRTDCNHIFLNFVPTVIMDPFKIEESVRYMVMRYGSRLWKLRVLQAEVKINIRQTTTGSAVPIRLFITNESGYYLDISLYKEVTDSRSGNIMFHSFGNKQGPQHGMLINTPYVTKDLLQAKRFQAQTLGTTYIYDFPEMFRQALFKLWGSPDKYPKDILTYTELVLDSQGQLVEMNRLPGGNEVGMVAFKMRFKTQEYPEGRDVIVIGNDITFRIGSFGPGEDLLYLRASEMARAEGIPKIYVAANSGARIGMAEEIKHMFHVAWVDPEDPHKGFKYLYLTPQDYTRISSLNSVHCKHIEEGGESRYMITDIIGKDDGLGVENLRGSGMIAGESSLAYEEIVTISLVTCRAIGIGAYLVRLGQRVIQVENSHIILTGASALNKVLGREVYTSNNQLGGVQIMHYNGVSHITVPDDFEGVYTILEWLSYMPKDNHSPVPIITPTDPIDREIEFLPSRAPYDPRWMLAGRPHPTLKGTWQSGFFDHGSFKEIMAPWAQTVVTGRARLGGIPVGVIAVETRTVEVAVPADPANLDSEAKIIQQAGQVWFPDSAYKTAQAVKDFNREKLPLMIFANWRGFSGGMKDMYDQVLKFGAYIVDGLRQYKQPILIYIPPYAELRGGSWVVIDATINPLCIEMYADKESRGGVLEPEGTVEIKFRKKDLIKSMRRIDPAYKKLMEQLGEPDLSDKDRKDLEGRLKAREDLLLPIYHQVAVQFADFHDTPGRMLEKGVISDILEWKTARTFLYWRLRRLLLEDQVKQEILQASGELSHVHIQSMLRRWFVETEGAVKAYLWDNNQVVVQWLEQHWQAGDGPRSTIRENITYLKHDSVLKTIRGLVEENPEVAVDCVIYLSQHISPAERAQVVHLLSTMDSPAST

Take `COc1ccccc1[C@H](Cn1c(=O)n([C@H]2C[C@H](CC(=O)O)C2)c(=O)c2c(C)c(-c3ncco3)sc21)OC1CCOCC1` [c-3-1, 2-((1R,3r)-3-(1-((R)-2-(2-methoxyphenyl)-2-((tetrahydro-2H-pyran-4-yl)oxy)ethyl)-5-methyl-6-(oxazol-2-yl)-2,4-dioxo-1,2-dihydrothieno[2,3-d]pyrimidine-3(4H)-yl)cyclobutyl)acetic acid]: in series [1], the “inhibitory properties against ACC2 (in words)” value is listed as “good inhibitory properties”. For the same molecule, the IC50 in series [1] was found to be 9 nM. This molecule also came in with a Cl in series [2] of 10.7 mL/min/kg. Also, in series [2] (po 10 mg/kg), the Kp was 9.46 to 17.3. For the same molecule, in series [2], the Vd came out at 0.826 L/kg. For the same molecule, the AUC(0-inf) in series [2] (setting [3]) turned out to be 3120 ng·h/mL; in series [2] (setting [7]), 15700 ng·h/mL. For the same molecule, the Cmax in series [2] (setting [4]) was determined as 4100 ng/mL; in series [2] (setting [8]) it was 7780 ng/mL. Further, the values for the Tmax in series [2] (setting [5]) and in series [2] (setting [9]) were 5 min and 30 min, respectively. In addition, the half-life is 104 min in series [2] (setting [6]) and 279 min in series [2] (setting [10]). Also, the bioavailability in series [2] (po 10 mg/kg, iv 2 mg/kg) was found to be 99.6%.

On to `COc1ccccc1[C@H](Cn1c(=O)n([C@H]2C[C@@H](CC(=O)O)C2)c(=O)c2c(C)c(-c3ncco3)sc21)OC1CCOCC1` [c-3-2, 2-((1S,3s)-3-(1-((R)-2-(2-methoxyphenyl)-2-((tetrahydro-2H-pyran-4-yl)oxy)ethyl)-5-methyl-6-(oxazol-2-yl)-2,4-dioxo-1,2-dihydrothieno[2,3-d]pyrimidine-3(4H)-yl)cyclobutyl)acetic acid], for which the “inhibitory properties against ACC2 (in words)” value in series [1] was “good inhibitory properties”. Also, the IC50 in series [1] stood at 8 nM. Besides, the Cl in series [2] turned out to be 25.1 mL/min/kg. Moreover, the Kp in series [2] (po 10 mg/kg) was in the range of 20.6 to 30. For the same molecule, the Vd in series [2] stood at 0.839 L/kg. Further, the AUC(0-inf) in series [2] (setting [3]) was 1390 ng·h/mL; in series [2] (setting [7]), 4350 ng·h/mL. The Cmax in series [2] (setting [4]) came to 3110 ng/mL; in series [2] (setting [8]) it was 3240 ng/mL. Besides, the results for the Tmax in series [2] (setting [5]) and in series [2] (setting [9]) were 5 min and 24 min, respectively. Also, the half-life in series [2] (setting [6]) was 54 min; in series [2] (setting [10]), 289 min. For the same molecule, the bioavailability in series [2] (po 10 mg/kg, iv 2 mg/kg) worked out at 62.3%.

As usually defined, the IC50 is the concentration that gives 50% inhibition. By Cmax is commonly meant the maximum level reached in the sampled fluid or tissue. The Tmax is the time at which the peak concentration occurs. The bioavailability is dose-corrected exposure relative to a reference, in per cent.
